Structures can show the parent of a compound that is named as a salt.
Assays:
[1] = In-vitro dissolution, 900 ml medium (0.1N HCl, pH 4.5 acetate buffer, pH 6.8 or pH 7.5 phosphate buffer), USP Apparatus 1, 75 rpm, 37° C.; type: physicochemical
Experimental: The dissolution profile of the above pharmaceutical composition was determined under the dissolution conditions described below in Tables 1A, 1B, and 1C.

[2] = Solubility (37° C.) in 0.1N HCl, pH 4.5, pH 6.8; type: physicochemical; design: Solubility (37° C.): unit not given here; details: hydrobromide

In the case of `CC(NC(C)(C)C)C(=O)c1cccc(Cl)c1` (stereo not shown) [Bupropion HBr, bupropion hydrobromide], the “% Released” value ([1]; Example 1 tablet, 0.1N HCl, 1 hr) is reported as 12%, the “% Released” value ([1]; Example 1 tablet, 0.1N HCl, 2 hr) is reported as 29% and the “% Released” value ([1]; Example 1 tablet, 0.1N HCl, 3 hr) is reported as 45%. The “% Released” value ([1]; Example 1 tablet, 0.1N HCl, 4 hr) was 59%, the “% Released” value ([1]; Example 1 tablet, 0.1N HCl, 5 hr) was 73% and the “% Released” value ([1]; Example 1 tablet, 0.1N HCl, 6 hr) was 84%. The “% Released” value ([1]; Example 1 tablet, 0.1N HCl, 7 hr) was 93%, the “% Released” value ([1]; Example 1 tablet, 0.1N HCl, 8 hr) was 100% and the “% Released” value ([1]; Example 1 tablet, 0.1N HCl, 9 hr) was 103%. The “% Released” value ([1]; Example 1 tablet, 0.1N HCl, 10 hr) was 104%, the “% Released” value ([1]; Example 1 tablet, 0.1N HCl, 11 hr) was 104% and the “% Released” value ([1]; Example 1 tablet, 0.1N HCl, 12 hr) was 104%. For the same molecule, the “% Released” value ([1]; Example 1 tablet, 0.1N HCl, 13 hr) was 103%, the “% Released” value ([1]; Example 1 tablet, 0.1N HCl, 14 hr) was 103% and the “% Released” value ([1]; Example 1 tablet, pH 4.5 acetate buffer, 1 hr) was 12%. The “% Released” value ([1]; Example 1 tablet, pH 4.5 acetate buffer, 2 hr) was 28%, the “% Released” value ([1]; Example 1 tablet, pH 4.5 acetate buffer, 3 hr) was 43% and the “% Released” value ([1]; Example 1 tablet, pH 4.5 acetate buffer, 4 hr) was 57%. For the same molecule, the “% Released” value ([1]; Example 1 tablet, pH 4.5 acetate buffer, 5 hr) was 70%, the “% Released” value ([1]; Example 1 tablet, pH 4.5 acetate buffer, 6 hr) was 81% and the “% Released” value ([1]; Example 1 tablet, pH 4.5 acetate buffer, 7 hr) was 91%. The “% Released” value ([1]; Example 1 tablet, pH 4.5 acetate buffer, 8 hr) was 98%, the “% Released” value ([1]; Example 1 tablet, pH 4.5 acetate buffer, 9 hr) was 103% and the “% Released” value ([1]; Example 1 tablet, pH 4.5 acetate buffer, 10 hr) was 105%. The “% Released” value ([1]; Example 1 tablet, pH 4.5 acetate buffer, 11 hr) was 106%, the “% Released” value ([1]; Example 1 tablet, pH 4.5 acetate buffer, 12 hr) was 106% and the “% Released” value ([1]; Example 1 tablet, pH 4.5 acetate buffer, 13 hr) was 106%. For the same molecule, the “% Released” value ([1]; Example 1 tablet, pH 4.5 acetate buffer, 14 hr) was 106%, the “% Released” value ([1]; Example 1 tablet, pH 4.5 acetate buffer, 15 hr) was 105% and the “% Released” value ([1]; Example 1 tablet, pH 4.5 acetate buffer, 16 hr) was 105%. The “% Released” value ([1]; Example 1 tablet, pH 6.8 phosphate buffer, 1 hr) was 12%, the “% Released” value ([1]; Example 1 tablet, pH 6.8 phosphate buffer, 2 hr) was 27% and the “% Released” value ([1]; Example 1 tablet, pH 6.8 phosphate buffer, 3 hr) was 42%. For the same molecule, the “% Released” value ([1]; Example 1 tablet, pH 6.8 phosphate buffer, 4 hr) was 56%, the “% Released” value ([1]; Example 1 tablet, pH 6.8 phosphate buffer, 5 hr) was 69% and the “% Released” value ([1]; Example 1 tablet, pH 6.8 phosphate buffer, 6 hr) was 80%. The “% Released” value ([1]; Example 1 tablet, pH 6.8 phosphate buffer, 7 hr) was 88%, the “% Released” value ([1]; Example 1 tablet, pH 6.8 phosphate buffer, 8 hr) was 95% and the “% Released” value ([1]; Example 1 tablet, pH 6.8 phosphate buffer, 9 hr) was 98%. For the same molecule, the “% Released” value ([1]; Example 1 tablet, pH 6.8 phosphate buffer, 10 hr) was 100%, the “% Released” value ([1]; Example 1 tablet, pH 6.8 phosphate buffer, 11 hr) was 100% and the “% Released” value ([1]; Example 1 tablet, pH 6.8 phosphate buffer, 12 hr) was 100%. For the same molecule, the “% Released” value ([1]; Example 1 tablet, pH 6.8 phosphate buffer, 13 hr) was 101%, the “% Released” value ([1]; Example 1 tablet, pH 6.8 phosphate buffer, 14 hr) was 100% and the “% Released” value ([1]; Example 1 tablet, pH 6.8 phosphate buffer, 15 hr) was 99%. The “% Released” value ([1]; Example 1 tablet, pH 6.8 phosphate buffer, 16 hr) was 99%, the “% Released” value ([1]; Example 2 tablet, 0.1N HCl, 1 hr) was 12% and the “% Released” value ([1]; Example 2 tablet, 0.1N HCl, 2 hr) was 29%. For the same molecule, the “% Released” value ([1]; Example 2 tablet, 0.1N HCl, 4 hr) was 61%, the “% Released” value ([1]; Example 2 tablet, 0.1N HCl, 8 hr) was 100% and the “% Released” value ([1]; Example 2 tablet, 0.1N HCl, 12 hr) was 103%. The “% Released” value ([1]; Example 2 tablet, pH 4.5 acetate buffer, 1 hr) was 12%, the “% Released” value ([1]; Example 2 tablet, pH 4.5 acetate buffer, 2 hr) was 28% and the “% Released” value ([1]; Example 2 tablet, pH 4.5 acetate buffer, 4 hr) was 57%. The “% Released” value ([1]; Example 2 tablet, pH 4.5 acetate buffer, 8 hr) was 97%, the “% Released” value ([1]; Example 2 tablet, pH 4.5 acetate buffer, 16 hr) was 101% and the “% Released” value ([1]; Example 2 tablet, pH 6.8 phosphate buffer, 1 hr) was 11%. The “% Released” value ([1]; Example 2 tablet, pH 6.8 phosphate buffer, 2 hr) was 27%, the “% Released” value ([1]; Example 2 tablet, pH 6.8 phosphate buffer, 4 hr) was 55% and the “% Released” value ([1]; Example 2 tablet, pH 6.8 phosphate buffer, 8 hr) was 94%. For the same molecule, the “% Released” value ([1]; Example 2 tablet, pH 6.8 phosphate buffer, 12 hr) was 97%, the “% Released” value ([1]; Example 2 tablet, pH 6.8 phosphate buffer, 16 hr) was 96% and the “% Released” value ([1]; Example 3 tablet, 0.1N HCl, 1 hr) was 13%. For the same molecule, the “% Released” value ([1]; Example 3 tablet, 0.1N HCl, 2 hr) was 31%, the “% Released” value ([1]; Example 3 tablet, 0.1N HCl, 4 hr) was 62% and the “% Released” value ([1]; Example 3 tablet, 0.1N HCl, 12 hr) was 104%. For the same molecule, the “% Released” value ([1]; Example 3 tablet, 0.1N HCl, 16 hr) was 103%, the “% Released” value ([1]; Example 3 tablet, pH 4.5 acetate buffer, 1 hr) was 12% and the “% Released” value ([1]; Example 3 tablet, pH 4.5 acetate buffer, 2 hr) was 28%. The “% Released” value ([1]; Example 3 tablet, pH 4.5 acetate buffer, 4 hr) was 58%, the “% Released” value ([1]; Example 3 tablet, pH 4.5 acetate buffer, 8 hr) was 99% and the “% Released” value ([1]; Example 3 tablet, pH 4.5 acetate buffer, 12 hr) was 103%. For the same molecule, the “% Released” value ([1]; Example 3 tablet, pH 6.8 phosphate buffer, 1 hr) was 11%, the “% Released” value ([1]; Example 3 tablet, pH 6.8 phosphate buffer, 2 hr) was 27% and the “% Released” value ([1]; Example 3 tablet, pH 6.8 phosphate buffer, 4 hr) was 57%. The “% Released” value ([1]; Example 3 tablet, pH 6.8 phosphate buffer, 8 hr) was 98%, the “% Released” value ([1]; Example 3 tablet, pH 6.8 phosphate buffer, 12 hr) was 100% and the “% Released” value ([1]; Example 3 tablet, pH 6.8 phosphate buffer, 16 hr) was 99%. For the same molecule, the “% Released” value ([1]; Example 4 tablet, 0.1N HCl, 1 hr) was 11%, the “% Released” value ([1]; Example 4 tablet, 0.1N HCl, 2 hr) was 27% and the “% Released” value ([1]; Example 4 tablet, 0.1N HCl, 4 hr) was 56%. For the same molecule, the “% Released” value ([1]; Example 4 tablet, 0.1N HCl, 8 hr) was 97%, the “% Released” value ([1]; Example 4 tablet, 0.1N HCl, 12 hr) was 105% and the “% Released” value ([1]; Example 4 tablet, 0.1N HCl, 16 hr) was 103%. For the same molecule, the “% Released” value ([1]; Example 5 tablet, 0.1N HCl, 1 hr) was 9%, the “% Released” value ([1]; Example 5 tablet, 0.1N HCl, 2 hr) was 20% and the “% Released” value ([1]; Example 5 tablet, 0.1N HCl, 4 hr) was 43%. For the same molecule, the “% Released” value ([1]; Example 5 tablet, 0.1N HCl, 8 hr) was 82%, the “% Released” value ([1]; Example 5 tablet, 0.1N HCl, 12 hr) was 98% and the “% Released” value ([1]; Example 5 tablet, 0.1N HCl, 16 hr) was 99%. The “% Released” value ([1]; Example 6 tablet, 0.1N HCl, 1 hr) was 13%, the “% Released” value ([1]; Example 6 tablet, 0.1N HCl, 2 hr) was 30% and the “% Released” value ([1]; Example 6 tablet, 0.1N HCl, 4 hr) was 61%. The “% Released” value ([1]; Example 6 tablet, 0.1N HCl, 8 hr) was 98%, the “% Released” value ([1]; Example 6 tablet, 0.1N HCl, 12 hr) was 100% and the “% Released” value ([1]; Example 6 tablet, 0.1N HCl, 16 hr) was 100%. For the same molecule, the “% Released” value ([1]; Example 7 tablet, 0.1N HCl, 1 hr) was 2%, the “% Released” value ([1]; Example 7 tablet, 0.1N HCl, 8 hr) was 36% and the “% Released” value ([1]; Example 7 tablet, 0.1N HCl, 12 hr) was 57%. The “% Released” value ([1]; Example 7 tablet, 0.1N HCl, 16 hr) was 74%, the “Solubility (37° C.)” value ([2]; 0.1N HCl) was 190 and the “Solubility (37° C.)” value ([2]; pH 4.5) was 180. The “Solubility (37° C.)” value ([2]; pH 6.8) was 200.
